Laboratory results taken from patent publication US10323013B2, “Inhibitors of the IRE-1/XBP-1 pathway and methods of using thereof” (H. LEE MOFFITT CANCER CENTER AND RESEARCH INSTITUTE, INC., priority 2013, dated 2019).
pIC50: −log10 of the molar value. Where “and” joins values, the source holds several entries; their conditions need not be identical. Identical values can stand only once. Like-named read-outs stand apart in the source and are kept apart here.

Columns and labels:
recombinant hIRE-1 = recombinant hIRE-1 (Homo sapiens (Human), UniProt O75460); assay: In vitro IRE-1 RNase FRET-suppression assay; format: biochemical; conditions: for IC50: text values of Example 3, unit printed as mM
Description: Fluorescence was read at various time points using a Biotek Synergy H1 plate reader with excitation and emission at 620 nm and 680 nm, respectively. […] All fluorescence readings were corrected using background values from wells containing only 120 μL of 50 nM XBP-1 RNA.
Fluorescence was read at various time points using a Biotek Synergy H1 plate reader with excitation and emission at 620 nm and 680 nm, respectively. […] All fluorescence readings were corrected using background values from wells containing only 120 mL of 50 nM XBP-1 RNA.

XBP-1s expression = assay: Inhibition of XBP-1s expression in LPS-stimulated mouse B cells (immunoblots); format: cell-based; conditions: for inhibition of XBP-1s expression (in words): LPS 48 h, then inhibitor 20 μM for 24 h (Example 3 prints 20 mM); for inhibition of XBP-1 expression (in words): inhibitor 50 μM (b479 prints 50 mM), also Eμ-TCL1 CLL and WaC3 cells
Description: The protein concentrations of the supernatants were determined by BCA assay (Pierce). […] Proteins were transferred to nitrocellulose membranes, blocked in 5% milk (wt/vol in PBS), and immunoblotted with the indicated antibodies and appropriate horseradish peroxidase-conjugated secondary antibodies. Following multiple washes in PBS, the blots were developed using Western Lighting Chemiluminescence Reagent (Perkin-Elmer).
Protein concentrations were determined by BCA assays (Pierce). […] Proteins were transferred to nitrocellulose membranes, blocked in 5% non-fat milk (wt/vol in PBS), and immunoblotted with indicated primary antibodies and appropriate horseradish peroxidase-conjugated secondary antibodies. Immunoblots were developed using Western Lighting Chemiluminescence Reagent (Perkin-Elmer).

WaC3 cells = assay: Cell proliferation XTT assay, WaC3; format: cell-based, human; conditions: for growth response (in words): WaC3, 50 μM, course of 4 days
Description: (§1) Eμ-TCL1, MEC1, MEC2, WaC3, or primary human CLL cells were grown in 96-well cell culture plates overnight and then treated with fresh phenol red-free culture medium containing STF-083010 (50 μM), A-I06 (50 μM), A-I07 (50 μM) or fludarabine (30 μM). […] Briefly, 50 μl XTT labeling reagent was combined with 100 μl electron-coupling reagent, and the mixture was applied to each well of the 96-well plates. The test was based on cleavage of the yellow tetrazolium salt XTT by mitochondrial dehydrogenases of the metabolic active cells to form the orange formazan compound, which can be spectrophotometrically quantified at 492 nm using a BioTek microplate reader.

Eμ-TCL1 CLL cells [1] = assay: Cell proliferation XTT assay, Eμ-TCL1 CLL cells; format: cell-based, mouse; conditions: 50 μM, after 3 days
Description: as §1

MEC1 cells = assay: Cell proliferation XTT assay, MEC1; format: cell-based, human; conditions: MEC1, 50 μM, first 48 h
Description: as §1

MEC2 cells = assay: Cell proliferation XTT assay, MEC2; format: cell-based, human; conditions: MEC2, 50 μM, first 48 h
Description: as §1

primary human CLL cells = assay: Cell proliferation XTT assay, primary human CLL cells; format: cell-based; conditions: primary human CLL cells, 50 μM, 3 days
Description: as §1

[2] = test system: Eμ-TCL1 mice with high CLL burden; format: in vivo; conditions: A-I06 60 mg/kg i.p.
Description: Older Eμ-TCL1 mice (age >8 months) with high CLL burden in the peripheral blood were identified by examining the percentage of CLL cells in PBMCs. These mice then received intraperitoneal injections with A-I06 (60 mg/kg) dissolved in Cremophor® ELP (vehicle, Sigma). The progression of CLL was monitored by flow cytofluorometry.

Eμ-TCL1 CLL cells [3] = assay: Annexin V/DAPI flow cytofluorometry of cultured Eμ-TCL1 CLL cells; format: cell-based, mouse; conditions: 50 μM or 100 μM for 24 h
Description: PBMCs were non-lethally obtained from mice following the submandibular bleed and RBC lysis (Qiagen). Nonspecific staining was first blocked for 30 min at 4° C. with 300 μl FBS per 1.0×10^6 cells. Cell surface staining was accomplished by 30-min incubation at 4° C. with 1 μl per 1.0×10^6 cells of the following anti-mouse antibodies: B220-Alexa488, CD19-APC-Cy7 (BD Pharmingen), IgM-Alexa568 (Invitrogen), CD5-APC (eBioscience) and CD138-PE (BD Pharmingen). Viability staining was accomplished using DAPI exclusion (10 μg/ml; 200 μl/1×10^6 cells) during acquisition. Apoptotic cells were detected by Annexin V-PE staining (BD Pharmingen). Acquisition of B-cell and CLL cell populations was performed on a LSRII cytometer (BD Biosciences) harboring a custom configuration for the H. Lee Moffitt Cancer Center & Research Institute, having multiple laser beams and detectors for excitation of various fluorophores and wide emission spectrum detection. Mid-range Spherotech FL1 fluorescent rainbow beads (BD Biosciences) were used to maintain consistent gains for all parameters across time points. Analysis of cytometry data was achieved using FlowJo software version 7.6.1 (Tree Star Inc.).

[4] = Degradation (chemical stability) studies by HPLC/LCMS; format: physicochemical; conditions: over 12 hours, rt
Description: The degradation of analog 24 was plotted as a function of time upon exposure to FRET-suppression assay buffer at rt. Aliquots were partitioned with MeOH and injected onto LCMS (UV monitored at 320 nm) and peaks integrated relative to internal standard.
A 20 mM stock solution of B-I09 in DMSO was diluted to 0.5 mM in FRET assay buffer (20 mM HEPES, pH 7.5, 50 mM KOAc, 0.5 mM MgCl2, 3 mM DTT, 0.4% PEG) or cell culture media (RPMI supplemented with 10% fetal bovine serum). The FRET assay buffer and cell culture media solutions were incubated at room temperature and 37° C., respectively. At various time points, a 50 μL aliquot of each solution was added to 50 μL of methanol and the mixture analyzed by analytical reverse-phase HPLC (C18 4 mm×150 mm column, 1 mL/min flow rate) with acetonitrile/water (0.1% formic acid) as eluent. Absorbance was read at 320 nm and the degradation product (aldehyde) was identified by LCMS and co-injection with pure synthetic sample. Degradation studies were carried out in duplicate and data points reported as the mean of two values.

XBP-1 mRNA splicing = XBP-1 mRNA splicing by RT-PCR; format: cell-based; conditions: human WaC3 CLL cells, 24 h
Description: Total RNA was isolated using TRIzol reagent (Invitrogen). Complementary DNA was synthesized from RNA using Superscript II reverse transcriptase (Invitrogen).

[5] = Aqueous solubility (stated in words); format: physicochemical
[6] = STF-083010 stability studies by RP-HPLC; format: physicochemical
Description: STF-083010 stability studies were performed using analytical reverse-phase high pressure liquid chromatography (RP-HPLC) with a C18 column (4 mm×150 mm) and a 10-90% linear gradient of acetonitrile in water (containing 0.1% formic acid) as eluent over 20 minutes (1 ml/min flow rate). Compounds were detected at λ=254 nm. Crystalline STF-083010 was analyzed on a standard Bruker X8 Apex2 CCD-based X-ray diffractometer, and the solid-state structure was solved and refined with the Bruker SHELXTL (version 6.12) software package. Diffraction data (excluding structure factors) for STF-083010 have been deposited with the Cambridge Crystallographic Data Centre as supplementary CCDC publication number 850879.

[7] = read-out: IC50 in FRET-suppression assay

Chain of recombinant hIRE-1 (O75460 547-977): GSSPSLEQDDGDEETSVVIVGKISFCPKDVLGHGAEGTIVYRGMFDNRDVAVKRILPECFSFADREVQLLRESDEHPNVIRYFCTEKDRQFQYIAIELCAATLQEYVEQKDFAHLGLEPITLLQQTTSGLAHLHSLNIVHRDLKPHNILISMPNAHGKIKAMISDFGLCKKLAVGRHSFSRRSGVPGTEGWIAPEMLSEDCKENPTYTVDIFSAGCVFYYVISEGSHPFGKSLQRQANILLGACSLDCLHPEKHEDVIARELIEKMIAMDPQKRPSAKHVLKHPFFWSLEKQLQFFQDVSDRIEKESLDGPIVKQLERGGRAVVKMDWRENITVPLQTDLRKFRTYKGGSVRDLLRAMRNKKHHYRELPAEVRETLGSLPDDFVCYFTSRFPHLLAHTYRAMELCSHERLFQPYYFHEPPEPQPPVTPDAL

O=Cc1c(O)ccc2ccccc12 [A-I06, 2-hydroxynaphthaldehyde]
IRE-1 RNase inhibitory activity in FRET-suppression assay (in words) (recombinant hIRE-1): weaker activity
IC50 (recombinant hIRE-1; [7]): 9.73 mM
inhibition of XBP-1s expression (in words) (XBP-1s expression): requires a higher concentration to achieve complete inhibition
inhibition of XBP-1 expression (in words) (XBP-1s expression): can suppress the expression of XBP-1
inhibition of XBP-1 expression (in words) (XBP-1s expression; listed as 2): strong inhibition
growth response (in words) (WaC3 cells): gradually decreased growth
GI50 (WaC3 cells; read-out: GI50 (50% growth inhibition concentration), WaC3 cells, 48 h, XTT): ~50 µM
growth inhibition (Eμ-TCL1 CLL cells [1]): ~70%
growth inhibition (MEC1 cells): ~20%
growth inhibition (MEC2 cells): ~20%
cytotoxic effect (in words) (primary human CLL cells): significant cytotoxic effect
apoptosis of CD5+/B220+ CLL cells in treated mice (in words) [2]: increase of Annexin V+ apoptotic CD5+/B220+CLL cells
apoptosis of CD5−/B220+ B cells in treated mice (in words) [2]: does not induce CD5−/B220+ B cells to undergo apoptosis
CLL burden (in words) ([2]; Day 0, 1, 12, 13): reduced CLL burden
apoptosis (in words) (Eμ-TCL1 CLL cells [3]): Increased apoptosis

O=Cc1c(O)ccc2ccccc12 [A-I07]
IRE-1 RNase inhibitory activity in FRET-suppression assay (in words) (recombinant hIRE-1): no appreciable inhibition at 20 mM

O=S(=O)(NCc1c(O)ccc2ccccc12)c1cccs1 [B-A05]
inhibition of XBP-1 expression (in words) (XBP-1s expression): did not significantly alter XBP-1 expression

Cc1cc(=O)oc2c(C=O)c(O)ccc12 [Compound 4μ8C, 7-hydroxy-4-methyl-2-oxo-2H-chromene-8-carbaldehyde]
pIC50 (recombinant hIRE-1; 5 nM hIRE-1, 50 nM XBP-1 RNA, read-out: IC50 in FRET-suppression assay): 6.81 and 6.69
inhibition of XBP-1s expression (in words) (XBP-1s expression): strong inhibition

C=CCOC(=O)N1CCc2c(c(=O)oc3c(C=O)c(O)ccc23)C1 [Compound 21b, Allyl 7-formyl-8-hydroxy-5-oxo-4,5-dihydro-1H-chromeno[3,4-c]pyridine-3(2H)-carboxylate]
pIC50 (XBP-1s expression; Mus musculus, B-cell, LPS-stimulated B cells, 24 h, immunoblots, densitometry, approximate, read-out: IC50 for suppressing XBP-1s expression): ~5.29

C=CCOC(=O)N1CCc2c(c(=O)oc3c(C4OCCCO4)c(O)ccc23)C1 [Compound 24, allyl 7-(1,3-dioxan-2-yl)-8-hydroxy-5-oxo-4,5-dihydro-1H-chromeno[3,4-c]pyridine-3(2H)-carboxylate]
decomposition of the 1,3-dioxane moiety in assay buffer (in words) [4]: no significant decomposition
inhibition of splicing of XBP-1 mRNA (in words) (XBP-1 mRNA splicing): highly effective

C=CCOC(=O)N1CCc2c(c(=O)oc3c(C=O)c(OCc4ccccc4)ccc23)C1 [Compound 27, allyl 7-formyl-8-benzyloxy-5-oxo-4,5-dihydro-1H-chromeno[3,4-c]pyridine-3(2H)-carboxylate]
IRE-1 RNase inhibitory activity in FRET-suppression assay (in words) (recombinant hIRE-1): complete loss of potency below 20 mM
pIC50 (recombinant hIRE-1; In vitro IRE-1 RNase inhibition by analogs of 21b, FRET-suppression assay, read-out: IC50): < 4.70

N=C(N)N1CCc2c(c(=O)oc3c(C=O)c(O)ccc23)C1 [Compound 34, 7-Formyl-8-hydroxy-5-oxo-4,5-dihydro-1H-chromeno[3,4-c]pyridine-3(2H)-carboximidamide]
inhibition of XBP-1s expression (in words) (XBP-1s expression): did not effectively inhibit XBP-1s expression
solubility (in words) [5]: solubility decreased

O=S(=O)(N=Cc1c(O)ccc2ccccc12)c1cccs1 [STF-083010]
IC50 (recombinant hIRE-1; [7]): 9.94 mM
inhibition of XBP-1 expression (in words) (XBP-1s expression): can suppress the expression of XBP-1
growth response (in words) (WaC3 cells): gradually decreased growth
growth inhibition (Eμ-TCL1 CLL cells [1]): ~70%
growth inhibition (MEC1 cells): ~20%
growth inhibition (MEC2 cells): ~20%
cytotoxic effect (in words) (primary human CLL cells): significant cytotoxic effect
stability in 1:1 DMSO:water mixture (in words) ([6]; brief exposure): complete decomposition
stability of DMSO stock solutions (in words) ([6]; repeated freeze-thaw cycles): readily hydrolyzed into precursors A-I06 and A-I07
